Data on two compounds can be found in patent publication US6540995B1, “Encapsulated cells producing cytochrome P450” (priority 1996, dated 2003).

In series [1] the test system is breast cancer cells transfected with the CYP2B1 gene. Conditions: another study; cited from earlier work.
The test system is the same in series [2]. Conditions: another study; cited from earlier work. The source holds these as a separate data set.
The conditions of series [3]: after administration of the drug to patients (Wright et al. 1995); cited from earlier work.

Experimental for CYP2B1 expressing cells: After five additional days the cells were trypsinised and an aliquot mixed with the same amount of 0.4% Giemsa in PBS, incubated for 1 min and the living cells counted.

On to `O=P1(N(CCCl)CCCl)NCCCO1` (stereo not shown) [cyclophosphamide], for which, in the series with CYP2B1 expressing cells, the “sensitivity of CYP2B1 expressing cells compared with cells not expressing CYP2B1” value is listed as “tenfold higher sensitivity”. For the same compound, in series [1], the “effect on CYP2B1 transfected breast cancer cells” value is “cell killing”. In addition, the “effect on tumours after implantation in nude mice” value in series [2] is “tumour regression”.

In the case of `O=P1(NCCCl)OCCCN1CCCl` (stereo not shown) [ifosfamide], in series [3], the plasma drug concentrations was 100 to 500 µM.
